Earlier results as cited in patent US12071516B2, “Polymeric stabilizing formulations” (Nano Precision Medical, Inc., priority 2014, dated 2024).

OCCN1CCN(CCCN2c3ccccc3Sc3ccc(C(F)(F)F)cc32)CC1 [Fluphenazine]
water solubility: limited water solubility
